According to ChEMBL document CHEMBL1687706, “Inhibition of human immunodeficiency virus type 1 replication in human cells by Debio-025, a novel cyclophilin binding agent” (Antimicrob Agents Chemother, 2008):
Activity calls are given as the source filed them. The calls are words filed in the database; no cut-off is given here.

How the values were obtained:
Human alphaherpesvirus 1 [1] = test: Antiviral activity against Herpes simplex virus 1 KOS infected in human embryonic lung cells assessed as inhibition of viral replication; type: functional, organism-based; conditions: Human alphaherpesvirus 1, KOS
Human alphaherpesvirus 2 [2] = test: Antiviral activity against Herpes simplex virus 2 196 infected in human embryonic lung cells assessed as inhibition of viral replication; type: functional, organism-based; conditions: Human alphaherpesvirus 2, 196, lung
[3] = tested on: Human immunodeficiency virus 1; conditions: Human immunodeficiency virus 1, 3B
[4] = tested on: Vesicular stomatitis virus; test: Antiviral activity against VSV infected in human embryonic lung cells assessed as inhibition of viral replication; type: functional, organism-based
SARS-CoV = test: Antiviral activity against SARS coronavirus infected in african green monkey Vero cells assessed as inhibition of viral replication; type: functional, organism-based; conditions: Severe acute respiratory syndrome-related coronavirus
[5] = tested on: Human immunodeficiency virus 1; test: microbe, parasite or virus in culture; conditions: Human immunodeficiency virus 1, SF2
Vaccinia virus = test: Antiviral activity against Vaccinia virus infected in human embryonic lung cells assessed as reduction in viral yield measured after 3 days; type: functional, organism-based; conditions: Orthopoxvirus vaccinia, 72 h
Influenza A virus [6] = test: Antiviral activity against Influenza A virus H3N2 infected in MDCK cells assessed as inhibition of viral replication; type: functional, organism-based
Influenza B virus = test: Antiviral activity against influenza B virus infected in MDCK cells assessed as inhibition of viral replication; type: functional, organism-based
[7] = tested on: Human respiratory syncytial virus; test: Antiviral activity against RSV infected in human HeLa cells assessed as inhibition of viral replication
[8] = tested on: Bovine viral diarrhea virus 1; test: Antiviral activity against BVDV infected in […] cells assessed as inhibition of viral replication; type: functional, organism-based; conditions: Bovine viral diarrhea virus isolates and strains
[9] = tested on: Human papillomavirus type 16; test: Antiviral activity against HPV-16 infected in Caski cells assessed as inhibition of viral replication after 7 days; type: functional, Human papillomavirus 16
Human alphaherpesvirus 1 [10] = test: Antiviral activity against Herpes simplex virus 1 F infected in human embryonic lung cells assessed as inhibition of viral replication; type: functional, organism-based; conditions: Human alphaherpesvirus 1, strain F
Human alphaherpesvirus 2 [11] = test: Antiviral activity against Herpes simplex virus 2 Lyons infected in human embryonic lung cells assessed as inhibition of viral replication; type: functional, organism-based; conditions: Human alphaherpesvirus 2, Lyons
Human betaherpesvirus 5 [12] = test: Antiviral activity against Human cytomegalovirus Davis infected in human embryonic lung cells assessed as reduction in viral yield; type: functional, organism-based; conditions: Human betaherpesvirus 5, Davis
Human alphaherpesvirus 2 [13] = test: Antiviral activity against Herpes simplex virus 2 G infected in human embryonic lung cells assessed as inhibition of viral replication; type: functional, organism-based; conditions: Human alphaherpesvirus 2, strain G
Rattus norvegicus [14] = test: Immunosuppressive activity in Sprague-Dawley rat KHL model assessed as percent cytotoxic T cells at 10 mg/kg, po administered once daily for 28 days by flow cytometry; type: functional, T-cell
Yellow fever virus = test: Antiviral activity against Yellow fever virus 17D infected in african green monkey Vero cells assessed as inhibition of viral replication; type: functional, cell-based
[15] = tested on: Human papillomavirus type 16; test: Antiviral activity against HPV-16 infected in Caski cells assessed as inhibition of viral replication after 3 days; type: functional, organism-based, Human papillomavirus 16; conditions: Human papillomavirus 16, Ca-Ski, 72 h
Coxsackievirus = test: Antiviral activity against Coxsackie B3 infected in african green monkey Vero cells assessed as inhibition of viral replication; type: functional, organism-based
Rattus norvegicus [16] = test: Immunosuppressive activity in Sprague-Dawley rat […] model assessed as percent T-helper cells at 10 mg/kg, po administered once daily for 28 days by flow cytometry; type: functional
Human alphaherpesvirus 3 = test: Antiviral activity against VZV OKA infected in human embryonic lung cells assessed as inhibition of; type: functional, organism-based; conditions: Human alphaherpesvirus 3, OKA
Rattus norvegicus [17] = test: Immunosuppressive activity in Sprague-Dawley rat […] model assessed as percent T lymphocytes at 10 mg/kg, po administered once daily for 28 days by flow cytometry; type: functional
Hepatitis C virus = test: Antiviral activity against HCV infected in human Huh 5.2 cells assessed as reduction in viral RNA level by luciferase reporter gene assay; type: functional, organism-based, Hepacivirus hominis; conditions: Huh-5-2
Feline coronavirus = test: Antiviral activity against Feline coronavirus infected in CRFK assessed as inhibition of viral replication; type: functional, organism-based; conditions: Alphacoronavirus 1, CRFK
Rattus norvegicus [18] = test: Immunosuppressive activity in Sprague-Dawley rat […] model assessed as IgM level at 10 mg/kg, po administered once daily for 28 days by ELISA; type: functional
Human betaherpesvirus 5 [19] = test: Antiviral activity against Human cytomegalovirus AD169 infected in human embryonic lung cells assessed as reduction in viral yield; type: functional, organism-based; conditions: Human betaherpesvirus 5, AD169, lung
Influenza A virus [20] = test: Antiviral activity against Influenza A virus H1N1 infected in MDCK cells assessed as inhibition of viral replication; type: functional, organism-based
[21] = tested on: Human immunodeficiency virus 1; test: microbe, parasite or virus in culture; conditions: Human immunodeficiency virus 1, 3B, MT4
Human alphaherpesvirus 1 [22] = test: Antiviral activity against Herpes simplex virus 1 McIntyre infected in human embryonic lung cells assessed as inhibition of viral replication; type: functional, organism-based; conditions: Human alphaherpesvirus 1, McIntyre
PBMC = test: Cytotoxicity against human PBMC at 0.83 uM by MTT assay; type: cell-based
Jurkat = test: Immunosuppressive activity in human Jurkat cells assessed as inhibition of PHA-phorbol myristate acetate induced beta-galactosidase activity at 6.75 uM; type: functional, cell-based
MT4 = test: Cytotoxicity against human MT4 cells at 0.83 uM by MTT assay; type: cell-based; conditions: mt4, 0.83 µM

With `C/C=C/C[C@@H](C)[C@@H](O)[C@H]1C(=O)N[C@@H](CC)C(=O)N(C)CC(=O)N(C)[C@@H](CC(C)C)C(=O)N[C@@H](C(C)C)C(=O)N(C)[C@@H](CC(C)C)C(=O)N[C@@H](C)C(=O)N[C@H](C)C(=O)N(C)[C@@H](CC(C)C)C(=O)N(C)[C@@H](CC(C)C)C(=O)N(C)[C@@H](C(C)C)C(=O)N1C` [CYCLOSPORINE] the IC50 (Human alphaherpesvirus 1 [1]) was greater than 8.3 µM, the IC50 (Human alphaherpesvirus 2 [2]) was greater than 8.3 µM and the IC50 [3] was 0.45 µM. The IC50 [4] was greater than 8.3 µM, the IC50 (SARS-CoV) was greater than 8.3 µM and the IC50 [5] was 0.54 µM. It also gave an IC50 (Vaccinia virus) greater than 8.3 µM, an IC50 (Influenza A virus [6]) greater than 14.8 µM and an IC50 (Influenza B virus) greater than 14.8 µM. For the same molecule, the IC50 [7] was greater than 8.3 µM, the IC50 [8] was greater than 9.9 µM and the TC50 [9] was 0.3 µM. The IC50 (Human alphaherpesvirus 1 [10]) was greater than 8.3 µM, the IC50 (Human alphaherpesvirus 2 [11]) was greater than 8.3 µM and the IC50 (Human betaherpesvirus 5 [12]) was greater than 18.3 µM. It also gave an IC50 (Human alphaherpesvirus 2 [13]) greater than 8.3 µM, an Activity (Rattus norvegicus [14]) of 9.2% and an IC50 (Yellow fever virus) greater than 16.6 µM. It also gave an IC50 [15] of 0.4 µM, an IC50 (Coxsackievirus) greater than 25 µM and an Activity (Rattus norvegicus [16]) of 23.1%. For the same molecule, the IC50 (Human alphaherpesvirus 3) was 3.3 µM, the Activity (Rattus norvegicus [17]) was 33.6% and the IC50 (Hepatitis C virus) was 2.3 µM. The IC50 (Feline coronavirus) was 1.5 µM, the deltaA (Rattus norvegicus [18]) was 0.18 and the IC50 (Human betaherpesvirus 5 [19]) was greater than 18.3 µM. The IC50 (Influenza A virus [20]) was greater than 14.8 µM, the IC50 [21] was greater than 0.83 µM and the IC50 (Human alphaherpesvirus 1 [22]) was greater than 8.3 µM.
With `C/C=C/C[C@@H](C)[C@@H](O)[C@H]1C(=O)N[C@@H](CC)C(=O)N(C)CC(=O)N(C)[C@@H]([C@@H](C)CC)C(=O)N[C@@H](C(C)C)C(=O)N(C)[C@@H](CC(C)C)C(=O)N[C@@H](C)C(=O)N[C@H](C)C(=O)N(C)[C@@H](CC(C)C)C(=O)N(C)[C@@H](CC(C)C)C(=O)N(C)[C@@H](C(C)C)C(=O)N1C` [NIM811] the IC50 [3] was 0.47 µM, the IC50 [5] was 0.5 µM and the Activity (PBMC) was “Non-toxic”. For the same molecule, the inhibition (Jurkat) was “Active”, the Activity (MT4) was “Non-toxic” and the IC50 [21] was 0.31 µM.
